We go through 13 molecules from ChEMBL document CHEMBL2439969, “Replacement of Thr32 and Gln34 in the C-terminal neuropeptide Y fragment 25-36 by cis-cyclobutane and cis-cyclopentane β-amino acids shifts selectivity toward the Y(4) receptor” (J Med Chem, 2013).

Residues, ends and D or L forms follow the SMILES beside them.

The target in test [1] is T1, Neuropeptide Y receptor type 5 (Homo sapiens, UniProt Q15761).
T1 sequence (Q15761 whole entry): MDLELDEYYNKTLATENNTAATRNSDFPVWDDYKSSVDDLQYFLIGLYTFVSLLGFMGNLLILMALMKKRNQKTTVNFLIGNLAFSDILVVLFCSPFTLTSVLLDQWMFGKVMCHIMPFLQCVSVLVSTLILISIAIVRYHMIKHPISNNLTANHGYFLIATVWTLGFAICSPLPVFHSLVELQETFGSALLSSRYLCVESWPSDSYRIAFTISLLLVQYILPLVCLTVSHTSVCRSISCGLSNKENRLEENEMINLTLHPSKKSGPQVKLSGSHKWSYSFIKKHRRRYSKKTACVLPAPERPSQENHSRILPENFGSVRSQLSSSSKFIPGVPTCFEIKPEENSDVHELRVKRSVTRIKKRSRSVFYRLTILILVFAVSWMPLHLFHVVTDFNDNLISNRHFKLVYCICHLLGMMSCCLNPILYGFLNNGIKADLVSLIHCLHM
The experiment in a line: Displacement of Cy5-pNPY from human Y5 receptor expressed in human HEC-1B cells after 90 to 120 mins by flow cytometry. The test is classed as cell-based.

In test [2] the target is T2, Neuropeptide Y receptor type 1 (Homo sapiens, UniProt P25929).
T2 sequence (P25929 whole entry): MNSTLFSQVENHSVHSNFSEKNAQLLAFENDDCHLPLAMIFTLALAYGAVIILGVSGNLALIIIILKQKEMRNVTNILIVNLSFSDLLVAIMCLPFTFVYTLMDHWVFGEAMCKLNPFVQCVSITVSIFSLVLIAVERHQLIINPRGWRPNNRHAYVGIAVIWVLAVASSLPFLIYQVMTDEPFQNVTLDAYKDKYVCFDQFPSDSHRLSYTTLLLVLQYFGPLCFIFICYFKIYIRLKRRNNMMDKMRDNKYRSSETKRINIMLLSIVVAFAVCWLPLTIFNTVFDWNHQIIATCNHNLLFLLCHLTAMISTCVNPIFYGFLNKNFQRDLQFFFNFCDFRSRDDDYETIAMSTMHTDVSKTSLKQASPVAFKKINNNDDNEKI
The experiment in a line: Displacement of Cy5-pNPY from human Y1 receptor expressed in HEL cells after 90 to 120 mins by flow cytometry. The test is classed as cell-based. A general note: A flow cytometer gives signals particle by particle.

Test [3] deals with T3, Neuropeptide Y receptor type 4 (Homo sapiens, UniProt P50391). The experiment in a line: Displacement of Cy5-[K4]hPP from human Y4 receptor expressed in CHO cells after 90 to 120 mins by flow cytometry. The test is classed as cell-based.
T3 sequence (P50391 whole entry): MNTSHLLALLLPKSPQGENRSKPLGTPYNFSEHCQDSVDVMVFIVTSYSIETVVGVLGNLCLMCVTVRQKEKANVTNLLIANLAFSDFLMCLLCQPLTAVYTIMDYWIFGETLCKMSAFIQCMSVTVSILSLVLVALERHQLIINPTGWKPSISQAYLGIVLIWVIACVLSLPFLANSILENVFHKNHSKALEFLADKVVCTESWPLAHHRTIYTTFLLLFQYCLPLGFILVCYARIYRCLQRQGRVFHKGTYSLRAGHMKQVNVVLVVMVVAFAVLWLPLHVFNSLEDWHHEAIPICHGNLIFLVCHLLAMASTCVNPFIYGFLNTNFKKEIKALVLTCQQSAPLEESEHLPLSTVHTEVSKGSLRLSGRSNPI
Test [4] has as its target T4, Neuropeptide Y receptor type 2 (Homo sapiens, UniProt P49146).
T4 sequence (P49146 whole entry): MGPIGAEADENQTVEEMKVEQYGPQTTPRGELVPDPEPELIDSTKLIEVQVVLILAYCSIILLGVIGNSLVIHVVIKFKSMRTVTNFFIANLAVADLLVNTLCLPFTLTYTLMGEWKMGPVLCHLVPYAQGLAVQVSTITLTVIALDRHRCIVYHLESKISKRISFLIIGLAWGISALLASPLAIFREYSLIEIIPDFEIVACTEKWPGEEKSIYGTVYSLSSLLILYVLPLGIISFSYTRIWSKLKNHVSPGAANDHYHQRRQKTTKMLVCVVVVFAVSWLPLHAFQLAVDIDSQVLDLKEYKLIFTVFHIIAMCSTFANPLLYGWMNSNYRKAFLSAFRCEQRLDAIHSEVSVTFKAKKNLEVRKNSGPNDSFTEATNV
Nature of the test: Displacement of Cy5-pNPY from human Y2 receptor expressed in CHO cells after 90 to 120 mins by flow cytometry. The test is classed as cell-based.

Test [5] concerns the target T3, Neuropeptide Y receptor type 4. Nature of the test: Agonist activity at human Y4 receptor expressed in sf9 cells assessed as hydrolysis of [gamma-33P]GTP after 2 mins by scintillation counting analysis.

As to `CC[C@H](C)[C@H](NC(=O)[C@H](Cc1ccc(O)cc1)NC(=O)[C@H](Cc1cnc[nH]1)NC(=O)[C@H](CCCNC(=N)N)NC(C)=O)C(=O)N[C@@H](CC(N)=O)C(=O)N[C@@H](CC(C)C)C(=O)N[C@H](C(=O)N[C@H](C(=O)N[C@@H](CCCNC(=N)N)C(=O)N[C@H]1C[C@@H](C(=O)N[C@@H](CCCNC(=N)N)C(=O)N[C@@H](Cc2ccc(O)cc2)C(N)=O)C1(C)C)[C@@H](C)O)[C@@H](C)CC` (HELM PEPTIDE1{[ac].R.H.Y.I.N.L.I.T.R.[CC1(C)[C@@H](N[*:1])C[C@H]1C(=O)[*:2]].R.Y.[am]}$$$$V2.0), the Ki in test [1], in test [2], in test [3] and in test [4] was over 1000 nM throughout.

Take `CC[C@H](C)[C@H](NC(=O)[C@H](Cc1ccc(O)cc1)NC(=O)[C@H](Cc1cnc[nH]1)NC(=O)[C@H](CCCNC(=N)N)NC(C)=O)C(=O)N[C@@H](CC(N)=O)C(=O)N[C@@H](CC(C)C)C(=O)N[C@H](C(=O)N[C@H](C(=O)N[C@@H](CCCNC(=N)N)C(=O)N[C@H]1CC[C@H]1C(=O)N[C@@H](CCCNC(=N)N)C(=O)N[C@@H](Cc1ccc(O)cc1)C(N)=O)[C@@H](C)O)[C@@H](C)CC` (HELM PEPTIDE1{[ac].R.H.Y.I.N.L.I.T.R.[O=C([C@@H]1CC[C@@H]1N[*:1])[*:2]].R.Y.[am]}$$$$V2.0): the inhibition constant Ki in test [1] was over 1000 nM; in test [2], over 1000 nM; in test [3], 72 nM; in test [4], over 1000 nM. For the same molecule, in test [5], the EC50 was 122 nM.

For `CC[C@H](C)[C@H](NC(=O)[C@H](Cc1ccc(O)cc1)NC(=O)[C@H](Cc1cnc[nH]1)NC(=O)[C@H](CCCN=C(N)N)NC(C)=O)C(=O)N[C@@H](CC(N)=O)C(=O)N[C@@H](CC(C)C)C(=O)N[C@H](C(=O)N[C@@H]1C[C@H](C(=O)N[C@@H](CCCN=C(N)N)C(=O)N[C@@H]2C[C@H](C(=O)N[C@@H](CCCNC(=N)N)C(=O)N[C@@H](Cc3ccc(O)cc3)C(N)=O)C2(C)C)C1(C)C)[C@@H](C)CC` (HELM PEPTIDE1{[ac].R.H.Y.I.N.L.I.[CC1(C)[C@@H](C(=O)[*:2])C[C@H]1N[*:1]].R.[CC1(C)[C@@H](C(=O)[*:2])C[C@H]1N[*:1]].R.Y.[am]}$$$$V2.0), the inhibition constant Ki in test [1] was over 1000 nM; in test [2], over 1000 nM; in test [3] it was 0.53 nM; in test [4], over 1000 nM. The EC50 in test [5] came to 11 nM.

As for `CC[C@H](C)[C@H](NC(=O)[C@H](Cc1ccc(O)cc1)NC(=O)[C@H](Cc1cnc[nH]1)NC(=O)[C@H](CCCN=C(N)N)NC(C)=O)C(=O)N[C@@H](CC(N)=O)C(=O)N[C@@H](CC(C)C)C(=O)N[C@H](C(=O)N[C@H]1CCC[C@H]1C(=O)N[C@@H](CCCN=C(N)N)C(=O)N[C@H]1CCC[C@H]1C(=O)N[C@@H](CCCN=C(N)N)C(=O)N[C@@H](Cc1ccc(O)cc1)C(N)=O)[C@@H](C)CC` (HELM PEPTIDE1{[ac].R.H.Y.I.N.L.I.[O=C([C@@H]1CCC[C@@H]1N[*:1])[*:2]].R.[O=C([C@@H]1CCC[C@@H]1N[*:1])[*:2]].R.Y.[am]}$$$$V2.0), the Ki in test [1] is over 500 nM; in test [2], over 1000 nM; in test [3] it was 37 nM; in test [4], over 1000 nM. In test [5], the EC50 was 48 nM.

On to `CC[C@H](C)[C@H](NC(=O)[C@H](Cc1ccc(O)cc1)NC(=O)[C@H](Cc1cnc[nH]1)NC(=O)[C@H](CCCNC(=N)N)NC(C)=O)C(=O)N[C@@H](CC(N)=O)C(=O)N[C@@H](CC(C)C)C(=O)N[C@@H](CCCNC(=N)N)C(=O)N[C@H]1CC[C@H]1C(=O)N[C@@H](CCCNC(=N)N)C(=O)N[C@H]1CC[C@H]1C(=O)N[C@@H](CCCNC(=N)N)C(=O)N[C@@H](Cc1ccc(O)cc1)C(N)=O` (HELM PEPTIDE1{[ac].R.H.Y.I.N.L.R.[O=C([C@@H]1CC[C@@H]1N[*:1])[*:2]].R.[O=C([C@@H]1CC[C@@H]1N[*:1])[*:2]].R.Y.[am]}$$$$V2.0), for which the inhibitory constant (Ki) in test [1] was over 1000 nM; in test [2] it was over 1000 nM; in test [3] it was 35 nM; in test [4], over 1000 nM. Also, the half-maximal effective concentration (EC50) in test [5] came out at 66 nM.

Regarding `CC[C@H](C)[C@H](NC(=O)[C@H](Cc1ccc(O)cc1)NC(=O)[C@H](CCCNC(=N)N)NC(=O)[C@H](CCCNC(=N)N)NC(C)=O)C(=O)N[C@@H](CC(N)=O)C(=O)N[C@@H](CC(N)=O)C(=O)N[C@@H](CC(C)C)C(=O)N[C@H](C(=O)N[C@@H](CCCNC(=N)N)C(=O)N[C@H]1CC[C@H]1C(=O)N[C@@H](CCCNC(=N)N)C(=O)N[C@@H](Cc1ccc(O)cc1)C(N)=O)[C@@H](C)O` (HELM PEPTIDE1{[ac].R.R.Y.I.N.N.L.T.R.[O=C([C@@H]1CC[C@@H]1N[*:1])[*:2]].R.Y.[am]}$$$$V2.0), the inhibition constant Ki in test [1] was over 1000 nM; in test [2], over 1000 nM; in test [3], 70 nM; in test [4], over 1000 nM. In addition, in test [5], the concentration for a half-maximal effect (EC50) was 76 nM.

Turning to `CCCC[C@H](NC(=O)[C@H](CC(N)=O)NC(=O)[C@@H](NC(=O)[C@H](Cc1ccc(O)cc1)NC(=O)[C@H](CCCNC(=N)N)NC(=O)[C@H](CCCNC(=N)N)NC(C)=O)[C@@H](C)CC)C(=O)N[C@@H](CC(C)C)C(=O)N[C@H](C(=O)N[C@@H](CCCNC(=N)N)C(=O)N[C@H]1CCC[C@H]1C(=O)N[C@@H](CCCNC(=N)N)C(=O)N[C@@H](Cc1ccc(O)cc1)C(N)=O)[C@@H](C)O` (HELM PEPTIDE1{[ac].R.R.Y.I.N.[Nle].L.T.R.[O=C([C@@H]1CCC[C@@H]1N[*:1])[*:2]].R.Y.[am]}$$$$V2.0), the Ki in test [1] is over 500 nM; in test [2], over 1000 nM; in test [3] it was 14 nM; in test [4], 217 nM. Moreover, the EC50 in test [5] stood at 51 nM.

As to `CCCC[C@H](NC(=O)[C@H](CC(N)=O)NC(=O)[C@@H](NC(=O)[C@H](Cc1ccc(O)cc1)NC(=O)[C@H](CCCNC(=N)N)NC(=O)[C@H](CCCNC(=N)N)NC(C)=O)[C@@H](C)CC)C(=O)N[C@@H](CC(C)C)C(=O)N[C@H](C(=O)N[C@@H](CCCNC(=N)N)C(=O)N[C@H]1CC[C@H]1C(=O)N[C@@H](CCCNC(=N)N)C(=O)N[C@@H](Cc1ccc(O)cc1)C(N)=O)[C@@H](C)O` (HELM PEPTIDE1{[ac].R.R.Y.I.N.[Nle].L.T.R.[O=C([C@@H]1CC[C@@H]1N[*:1])[*:2]].R.Y.[am]}$$$$V2.0), the inhibition constant Ki in test [1] is over 1000 nM; in test [2] it was over 1000 nM; in test [3], 93 nM; in test [4], 708 nM. In test [5], the half-maximal effective concentration (EC50) is 284 nM.

On to `CC(=O)N[C@H](C(=O)N[C@@H](CCCNC(=N)N)C(=O)N[C@H]1CCC[C@H]1C(=O)N[C@@H](CCCNC(=N)N)C(=O)N[C@@H](Cc1ccc(O)cc1)C(N)=O)[C@@H](C)O` (HELM PEPTIDE1{[ac].T.R.[O=C([C@@H]1CCC[C@@H]1N[*:1])[*:2]].R.Y.[am]}$$$$V2.0), for which the inhibition constant (Ki) in test [1] is over 1000 nM; in test [2] it was over 1000 nM; in test [3] it was 509 nM; in test [4], over 1000 nM. Also, in test [5], the EC50 was determined as 451 nM.

Regarding `CC(=O)N[C@@H](Cc1ccc(O)cc1)C(=O)N[C@@H](CCCNC(=N)N)C(=O)N[C@H]1CCC[C@H]1C(=O)N[C@@H](CCCN=C(N)N)C(=O)N[C@@H](Cc1ccc(O)cc1)C(N)=O` (HELM PEPTIDE1{[ac].Y.R.[O=C([C@@H]1CCC[C@@H]1N[*:1])[*:2]].R.Y.[am]}$$$$V2.0), the Ki in test [1] is over 1000 nM; in test [2] it was over 1000 nM; in test [3], 105 nM; in test [4], over 1000 nM. In addition, the EC50 in test [5] came to 94 nM.

In the case of Ac-RHYINLITRLRY-NH2, the inhibition constant (Ki) in test [1] was over 1000 nM; in test [2] it was over 1000 nM; in test [3] it was 157 nM; in test [4], over 1000 nM. In test [5], the EC50 was determined as 100 nM.

Ac-TRLRY-NH2: the inhibitory constant (Ki) in test [1] is over 1000 nM; in test [2], over 1000 nM; in test [3], 490 nM; in test [4], over 1000 nM. Also, the EC50 in test [5] turned out to be 291 nM.

Turning to Ac-YRLRY-NH2, the inhibition constant Ki in test [1], in test [2] and in test [4] was over 1000 nM in each case.

In general, Ki refers to a dissociation constant, usually derived from enzyme kinetics or from competition with a known ligand. As usually defined, the EC50 is the midpoint of the concentration-response curve.
